Experimental data as given in patent publication US10399940B2, “Substituted pyrrolidines and methods of use” (AbbVie S.à.r.l., priority 2016, dated 2019).
Like-named read-outs stand apart in the source and are kept apart here.

Target: T1, F508delCFTR (Homo sapiens, UniProt P13569, DEL508-508)
T1 construct: expressed in transfected cells; host or cells: CFBE41o- (human lung derived epithelial cell line), doxycycline-inducible expression
Assay: Cell Surface Expression-Horse Radish Peroxidase (CSE-HRP) assay
Format: cell-based
Conditions: CFBE41o-F508delCFTR-HRP cells; for Maximum % activity (with co-corrector): with co-corrector (2 μM); for Maximum % activity (with co-corrector) / Maximum % activity (without co-corrector): normalized to on-plate positive control, highest concentration 20 μM
Procedure, shortened: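 CFBE41o- cells expressed F508delCFTR with HRP in the fourth exofacial loop, induced by 0.5 μg/mL doxycycline for 72 h at 37 °C. Compounds alone or with 2 μM co-corrector ran 18–24 h at 33 °C, 8-point 3-fold from 20 μM. Washed-cell luminol luminescence was normalized to DMSO and positive control, fitted sigmoidally for EC50 (three plates).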

[1] = test compound without co-corrector, 18-24 hours at 33° C., read-out: EC50 (without co-corrector)
[2] = with co-corrector (2 μM of 3-[(2R,4R)-4-({[1-(2,2-difluoro-1,3-benzodioxol-5-yl)cyclopropyl]carbonyl}amino)-7-methoxy-3,4-dihydro-2H-chromen-2-yl]benzoic acid), read-out: EC50 (with co-corrector)

T1 sequence (P13569 with tags, fused parts or gaps DEL508-508): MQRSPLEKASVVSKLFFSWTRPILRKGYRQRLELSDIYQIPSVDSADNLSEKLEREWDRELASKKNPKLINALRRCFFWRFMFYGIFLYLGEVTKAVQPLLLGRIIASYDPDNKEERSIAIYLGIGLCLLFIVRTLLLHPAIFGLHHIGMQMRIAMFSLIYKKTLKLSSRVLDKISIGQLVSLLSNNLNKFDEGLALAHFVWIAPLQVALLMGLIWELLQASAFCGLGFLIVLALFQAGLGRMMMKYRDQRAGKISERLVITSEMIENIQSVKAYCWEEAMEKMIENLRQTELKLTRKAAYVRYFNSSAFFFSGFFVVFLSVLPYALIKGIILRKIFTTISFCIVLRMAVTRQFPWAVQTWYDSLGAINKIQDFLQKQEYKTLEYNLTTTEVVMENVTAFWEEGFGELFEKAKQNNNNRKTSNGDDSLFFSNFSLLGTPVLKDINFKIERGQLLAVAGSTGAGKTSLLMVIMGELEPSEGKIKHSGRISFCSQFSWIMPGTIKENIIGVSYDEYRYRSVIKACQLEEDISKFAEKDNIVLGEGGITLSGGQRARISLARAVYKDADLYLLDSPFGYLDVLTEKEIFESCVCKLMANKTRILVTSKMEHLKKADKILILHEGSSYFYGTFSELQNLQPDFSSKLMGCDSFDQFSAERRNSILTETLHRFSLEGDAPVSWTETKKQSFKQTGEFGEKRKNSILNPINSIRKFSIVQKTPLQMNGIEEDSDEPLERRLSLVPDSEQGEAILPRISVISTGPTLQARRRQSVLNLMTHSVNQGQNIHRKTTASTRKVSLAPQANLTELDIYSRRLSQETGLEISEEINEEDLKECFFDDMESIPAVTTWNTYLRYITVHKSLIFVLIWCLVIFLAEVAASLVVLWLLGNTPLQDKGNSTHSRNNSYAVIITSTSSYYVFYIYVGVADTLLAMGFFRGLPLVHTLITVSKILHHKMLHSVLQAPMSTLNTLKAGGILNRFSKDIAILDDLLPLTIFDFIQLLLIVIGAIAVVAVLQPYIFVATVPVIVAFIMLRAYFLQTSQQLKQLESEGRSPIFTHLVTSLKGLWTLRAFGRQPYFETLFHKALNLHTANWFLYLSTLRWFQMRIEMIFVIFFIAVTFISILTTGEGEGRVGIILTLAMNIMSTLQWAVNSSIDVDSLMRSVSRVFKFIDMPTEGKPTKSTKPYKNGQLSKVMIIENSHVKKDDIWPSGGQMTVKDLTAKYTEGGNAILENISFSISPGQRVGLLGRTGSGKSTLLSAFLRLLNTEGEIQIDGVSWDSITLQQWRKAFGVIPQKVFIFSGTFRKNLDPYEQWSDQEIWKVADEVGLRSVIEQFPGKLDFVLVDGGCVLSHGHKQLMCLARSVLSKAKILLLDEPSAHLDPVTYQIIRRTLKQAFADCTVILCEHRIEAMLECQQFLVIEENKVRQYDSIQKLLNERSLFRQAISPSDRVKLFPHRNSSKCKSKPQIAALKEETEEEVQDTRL

Row | SMILES | EC50 [1] [µM] | EC50 [2] [µM] | Maximum % activity (with co-corrector) | Maximum % activity (without co-corrector)
1 | COc1nc2ccccc2cc1CO[C@H]1[C@H](C(C)(C)C)[C@@H](C(=O)O)N(C(=O)[C@@H]2CCCCO2)[C@H]1c1ccccc1C [Example 189, (2S,3R,4S,5S)-3-tert-butyl-4-[(2-methoxyquinolin-3-yl)methoxy]-5-(2-methylphenyl)-1-[(2S)-oxane-2-carbonyl]pyrrolidine-2-carboxylic acid] | 1 to 10 | 1 to 10 | +++ (≥350) | +++ (≥200)
2 | COc1ccc(C(F)(F)F)cc1CO[C@H]1[C@H](C(C)(C)C)[C@@H](C(=O)NS(=O)(=O)C2(C)CC2)N(C(=O)C2CCCCC2)[C@H]1c1ccccc1 [Example 22, (2S,3R,4S,5S)-3-tert-butyl-1-(cyclohexanecarbonyl)-4-{[2-methoxy-5-(trifluoromethyl)phenyl]methoxy}-N-(1-methylcyclopropane-1-sulfonyl)-5-phenylpyrrolidine-2-carboxamide] | > 10 | > 10 | + (<150) | + (<100)
3 | COc1ccc(Br)cc1CO[C@H]1[C@H](C(C)(C)C)[C@@H](C(=O)O)N(C(=O)OC(C)C)[C@H]1c1ccccc1 [Example 36, (2S,3R,4S,5S)-4-[(5-bromo-2-methoxyphenyl)methoxy]-3-tert-butyl-5-phenyl-1-{[(propan-2-yl)oxy]carbonyl}pyrrolidine-2-carboxylic acid] | 1 to 10 | 1 to 10 | +++ (≥350) | ++ (≥100 and <200)
4 | COc1ccc(C(C)(C)C)nc1CO[C@H]1[C@H](C(C)(C)C)[C@@H](C(=O)O)N(C(=O)[C@@H]2CCCCO2)[C@H]1c1ccccc1C [Example 226, (2S,3R,4S,5S)-3-tert-butyl-4-[(6-tert-butyl-3-methoxypyridin-2-yl)methoxy]-5-(2-methylphenyl)-1-[(2S)-oxane-2-carbonyl]pyrrolidine-2-carboxylic acid] | < 1 | < 1 | +++ (≥350) | +++ (≥200)
5 | COc1ncc(C2CCC2)cc1CO[C@H]1[C@H](C(C)(C)C)[C@@H](C(=O)O)N(C(=O)[C@@H]2CCCCO2)[C@H]1c1cccnc1OC(C)C [Example 136, (2S,3R,4S,5S)-3-tert-butyl-4-[(5-cyclobutyl-2-methoxypyridin-3-yl)methoxy]-1-[(2S)-oxane-2-carbonyl]-5-{2-[(propan-2-yl)oxy]pyridin-3-yl}pyrrolidine-2-carboxylic acid] | < 1 | < 1 | +++ (≥350) | ++ (≥100 and <200)
6 | COc1ncc(C2CCCC2)cc1CO[C@H]1[C@H](C(C)(C)C)[C@@H](C(=O)O)N(C(=O)OC(C)C)[C@H]1c1ccccc1 [Example 44, (2S,3R,4S,5S)-3-tert-butyl-4-[(5-cyclopentyl-2-methoxypyridin-3-yl)methoxy]-5-phenyl-1-{[(propan-2-yl)oxy]carbonyl}pyrrolidine-2-carboxylic acid] | 1 to 10 | 1 to 10 | +++ (≥350) | + (<100)
7 | COc1ncc(C(F)(F)F)cc1CO[C@H]1[C@H](C(C)(C)C)[C@@H](C(=O)O)N(C(=O)[C@@H]2CCCCO2)[C@H]1c1ccccc1C1=CCN(C)CC1 [Example 192, (2S,3R,4S,5S)-3-tert-butyl-4-{[2-methoxy-5-(trifluoromethyl)pyridin-3-yl]methoxy}-5-[2-(1-methyl-1,2,3,6-tetrahydropyridin-4-yl)phenyl]-1-[(2S)-oxane-2-carbonyl]pyrrolidine-2-carboxylic acid] | 1 to 10 | 1 to 10 | ++ (≥150 and <350) | + (<100)
8 | COc1ncc(C(F)(F)F)cc1CO[C@H]1[C@H](C(C)(C)C)[C@@H](C(=O)O)N(C(=O)OC(C)C)[C@H]1c1ccccc1C1CCC1 [Example 101, (2S,3R,4S,5S)-3-tert-butyl-5-(2-cyclobutylphenyl)-4-{[2-methoxy-5-(trifluoromethyl)pyridin-3-yl]methoxy}-1-{[(propan-2-yl)oxy]carbonyl}pyrrolidine-2-carboxylic acid] | 1 to 10 | 1 to 10 | +++ (≥350) | ++ (≥100 and <200)
9 | COc1ncc(Br)cc1CO[C@H]1[C@H](C(C)(C)C)[C@@H](C(=O)O)N(C(=O)C2CCCCC2)[C@H]1c1ccccc1F [Example 51, (2S,3R,4S,5S)-4-[(5-bromo-2-methoxypyridin-3-yl)methoxy]-3-tert-butyl-1-(cyclohexanecarbonyl)-5-(2-fluorophenyl)pyrrolidine-2-carboxylic acid] | 1 to 10 | 1 to 10 | +++ (≥350) | ++ (≥100 and <200)
10 | COc1ncc(C2CCC2)cc1CO[C@H]1[C@H](C(C)(C)C)[C@@H](C(=O)O)N(C(=O)OC(C)C)[C@H]1c1ccccc1C1CC1 [Example 168, (2S,3R,4S,5S)-3-tert-butyl-4-[(5-cyclobutyl-2-methoxypyridin-3-yl)methoxy]-5-(2-cyclopropylphenyl)-1-{[(propan-2-yl)oxy]carbonyl}pyrrolidine-2-carboxylic acid] | 1 to 10 | 1 to 10 | +++ (≥350) | ++ (≥100 and <200)

Next, values leading:

Row | EC50 [1] [µM] | EC50 [2] [µM] | Maximum % activity (with co-corrector) | Maximum % activity (without co-corrector) | SMILES
11 | > 10 | > 10 | + (<150) | + (<100) | COc1ccc(C(F)(F)F)cc1COC1[C@@H](c2ccccc2)N(C(=O)N(C(C)C)C(C)C)[C@@H](C(=O)O)[C@@H]1C(C)(C)C (mixture of isomers) [Example 7, rac-(2R,3S,5R)-3-tert-butyl-1-[di(propan-2-yl)carbamoyl]-4-{[2-methoxy-5-(trifluoromethyl)phenyl]methoxy}-5-phenylpyrrolidine-2-carboxylic acid]
12 | < 1 | < 1 | +++ (≥350) | +++ (≥200) | COc1ncc(C(C)(C)C)cc1CO[C@H]1[C@H](C(C)(C)C)[C@@H](C(=O)O)N(C(=O)[C@@H]2CCC[C@@H](OC)C2)[C@H]1c1ccccc1 [Example 61, (2S,3R,4S,5S)-3-tert-butyl-4-[(5-tert-butyl-2-methoxypyridin-3-yl)methoxy]-1-[(1R,3R)-3-methoxycyclohexane-1-carbonyl]-5-phenylpyrrolidine-2-carboxylic acid]
13 | 1 to 10 | < 1 | +++ (≥350) | ++ (≥100 and <200) | CCc1ccccc1[C@H]1[C@@H](OCC#Cc2cc(C(F)(F)F)cnc2OC)[C@H](C(C)(C)C)[C@@H](C(=O)O)N1C(=O)[C@@H]1CCCCO1 [Example 278, (2S,3R,4S,5S)-3-tert-butyl-5-(2-ethylphenyl)-4-({3-[2-methoxy-5-(trifluoromethyl)pyridin-3-yl]prop-2-yn-1-yl}oxy)-1-[(2S)-oxane-2-carbonyl]pyrrolidine-2-carboxylic acid]
14 | 1 to 10 | < 1 | ++ (≥150 and <350) | + (<100) | COc1ncc(C(F)(F)F)cc1CO[C@H]1[C@H](C(C)(C)C)[C@@H](C(=O)O)N(C(=O)[C@@H]2CCCO2)[C@H]1c1cccnc1OC(C)C [Example 146, (2S,3R,4S,5S)-3-tert-butyl-4-{[2-methoxy-5-(trifluoromethyl)pyridin-3-yl]methoxy}-1-[(2S)-oxolane-2-carbonyl]-5-{2-[(propan-2-yl)oxy]pyridin-3-yl}pyrrolidine-2-carboxylic acid]
15 | < 1 | < 1 | +++ (≥350) | + (<100) | COc1ncc(C(F)(F)F)cc1C#CCO[C@H]1[C@H](C(C)(C)C)[C@@H](C(=O)O)N(C(=O)OC(C)C)[C@H]1c1ccccc1 [Example 277, (2S,3R,4S,5S)-3-tert-butyl-4-({3-[2-methoxy-5-(trifluoromethyl)pyridin-3-yl]prop-2-yn-1-yl}oxy)-5-phenyl-1-{[(propan-2-yl)oxy]carbonyl}pyrrolidine-2-carboxylic acid]
16 | 1 to 10 | 1 to 10 | +++ (≥350) | ++ (≥100 and <200) | COc1ncc(C(F)(F)F)cc1CO[C@H]1[C@H](C(C)(C)C)[C@@H](C(=O)O)N(C(=O)C2CCOCC2)[C@H]1c1ccccc1C(C)C [Example 110, (2S,3R,4S,5S)-3-tert-butyl-4-{[2-methoxy-5-(trifluoromethyl)pyridin-3-yl]methoxy}-1-(oxane-4-carbonyl)-5-[2-(propan-2-yl)phenyl]pyrrolidine-2-carboxylic acid]
17 | 1 to 10 | < 1 | +++ (≥350) | ++ (≥100 and <200) | COc1ncc(C(F)(F)F)cc1CO[C@H]1[C@H](C(C)(C)C)[C@@H](C(=O)O)N(C(=O)[C@@H]2CCCO2)[C@H]1c1ccccc1 [Example 88, (2S,3R,4S,5S)-3-tert-butyl-4-{[2-methoxy-5-(trifluoromethyl)pyridin-3-yl]methoxy}-1-[(2S)-oxolane-2-carbonyl]-5-phenylpyrrolidine-2-carboxylic acid]
